Data: US10154976B2, “System and method for delivering protease inhibitors” (Bordoloi Biotech, LLC, priority 2013, dated 2018)
Blank lines part the entries; values can stand above or below the compound they belong to.

What was measured:
fibrin clot = experiment: Fibrin clot weight in a medium containing no plasmin (PBS only); design: species or system Bovine; details: 3 percent Ca-TA but without any plasmin; by Day-3 and Day-4
Experimental: Incubated at 37 C. […] Repeated till the clots completely disappeared.

plasmin [1] = target: T1, plasmin (Homo sapiens, UniProt P00747); experiment: Gravimetric fibrin clot degradation by plasmin, single 48 hour incubation; type: biochemical; design: TA delays the conversion of plasminogen to plasmin; purchased Sigma P1867
plasmin [2] = target: T1, plasmin; experiment: Gravimetric fibrin clot degradation in plasmin medium freshly exchanged every 24 hours;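 further: fibrin clots formed from bovine fibrinogen and thrombin in 96-well plates, weighed each day after plasmin exposure, percent degradation relative to original clot weight, with PBS-only no-plasmin controls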
Experimental: Also, a gravimetric in vitro method has been developed for a degradation study of a fibrin sealant in a plasmin medium at pH 7.4 and 37° C., where the medium has been freshly exchanged every twenty-four hours. Further investigation into the described degradation of fibrin sealant was undertaken for up to four consecutive days.
A preparation of fibrinogen solution was prepared as described herein: • 1. Prepared a 10 percent solution of fibrinogen by dissolving 1.4 gms of bovine fibrinogen (Sigma F8630) in 14 ml of PBS. The solution was incubated at 37° C. with occasional swirling for 1 hour or till fibrinogen is completely dissolved. • 2. Molecular weight of TA is 157 grams. Three and half millimolar (0.55 mg TA/ml) suspension of 5 percent and 30 percent TA/PLGA were prepared by dispersing 50 mg of 5 percent loaded TA/PLGA and 8.3 mg of 30 percent loaded TA/PLGA in 4.5 ml of 10 percent fibrinogen solution, respectively, Table 7. A 10 percent Fibrinogen solution without TA was used as the negative control.
Next, the fibrin clots in the ninety-six well plate were prepared as follows: • 1. Two and a half mg of Thrombin (600 units/mg) were dissolved in 1 ml of 375 mM CaCl2 solution in PBS (1500 U/ml). Seven microliters (10.5 U) were added to each well of the labeled 96 well plates. • 3. The fibrinogen solutions (with no TA/PLGA that is 0 percent, 5 percent loaded TA/PLGA and 30 percent loaded TA/PLGA) were mixed well and 100 microliter aliquots of 10 percent fibrinogen with or without TA/PLGA were added to the wells containing thrombin solution. […] The plates were incubated at 37° C. temperature for one hour. Final concentration of CaCl2 was 25 mM. The plate was stored at 4° C. overnight after the clot was formed.
Next, plasmin was added to the fibrin clots to begin the enzymatic degradation of the fibrin clots by plasmin as described herein: • 1. A 300× plasmin solution was prepared by dissolving 500 micrograms in 500 microliter PBS. A 2× stock was prepared by diluting 150 times in PBS and adding 100 microliters to each well of the 96 well plate. The final 1× concentration was 3.3 micrograms/ml in the solution. A no-plasmin PBS only control was used for each condition. • 2. Incubation was at 37° C. At every 24 hours, the 96 well plate was centrifuged at 1,000 rpm for five minutes at room temperature. The supernatant plasmin solutions were aspirated out from each well with micropipette leaving the clots at the bottom of the well. • 3. A set of fibrin clots for each condition each day were taken out for measuring their degradation by plasmin by weighing. Fresh 100 microliter of plasmin solution was added to the rest of the clots. Fibrin clots were removed for measuring their weights each day until the clots were completely degraded in the wells.
Data was collected as follows: • 1. The clots were picked up from the well with a pair of forceps and weighed. The percent degradation was calculated by 100−(Average wt of the plasmin treated clot/actual weight of the clot×100). • 2. The clots were placed on a glass slide and photographed.
The clot or sealant was exchanged with fresh plasmin solution of 3.3 micrograms/ml every 24 hours.
The clots were irrigated and exchanged with fresh plasmin solution of 3.3 micrograms/ml every 24 hours.

[3] = Day 0, 3 percent Ca-TA (169.5 mE, 30 mg/ml), no PLGA, plasmin 3.3 μg/ml exchanged every 24 hours, pH 7.4, 37° C.
[4] = Day 1, 3 percent Ca-TA, no PLGA, plasmin 3.3 μg/ml exchanged every 24 hours, pH 7.4, 37° C.
[5] = Day 2, 3 percent Ca-TA, no PLGA, plasmin 3.3 μg/ml exchanged every 24 hours, pH 7.4, 37° C.
[6] = Day 3, 3 percent Ca-TA, no PLGA, plasmin 3.3 μg/ml exchanged every 24 hours, pH 7.4, 37° C.
[7] = Day 4, 3 percent Ca-TA, no PLGA, plasmin 3.3 μg/ml exchanged every 24 hours, pH 7.4, 37° C.
[8] = TA 0.10 mM, plasmin 6.6 μg/ml, 37° C., 48 hours
[9] = TA 0.25 mM, plasmin 6.6 μg/ml, 37° C., 48 hours
[10] = TA 0.50 mM, plasmin 6.6 μg/ml, 37° C., 48 hours
[11] = TA 1.00 mM, plasmin 6.6 μg/ml, 37° C., 48 hours
[12] = Day 0, Aprotinin 1500 KIU without PLGA-2, plasmin 3.3 micrograms/ml fresh every 24 hours, 37 C
[13] = Day 1, Aprotinin 1500 KIU without PLGA-2, plasmin 3.3 micrograms/ml fresh every 24 hours, 37 C
[14] = Day 2, Aprotinin 1500 KIU without PLGA-2, plasmin 3.3 micrograms/ml fresh every 24 hours, 37 C
[15] = Day 3, Aprotinin 1500 KIU without PLGA-2, plasmin 3.3 micrograms/ml fresh every 24 hours, 37 C
[16] = Day 4, Aprotinin 1500 KIU without PLGA-2, plasmin 3.3 micrograms/ml fresh every 24 hours, 37 C

T1 sequence (P00747 97-580 limits assumed): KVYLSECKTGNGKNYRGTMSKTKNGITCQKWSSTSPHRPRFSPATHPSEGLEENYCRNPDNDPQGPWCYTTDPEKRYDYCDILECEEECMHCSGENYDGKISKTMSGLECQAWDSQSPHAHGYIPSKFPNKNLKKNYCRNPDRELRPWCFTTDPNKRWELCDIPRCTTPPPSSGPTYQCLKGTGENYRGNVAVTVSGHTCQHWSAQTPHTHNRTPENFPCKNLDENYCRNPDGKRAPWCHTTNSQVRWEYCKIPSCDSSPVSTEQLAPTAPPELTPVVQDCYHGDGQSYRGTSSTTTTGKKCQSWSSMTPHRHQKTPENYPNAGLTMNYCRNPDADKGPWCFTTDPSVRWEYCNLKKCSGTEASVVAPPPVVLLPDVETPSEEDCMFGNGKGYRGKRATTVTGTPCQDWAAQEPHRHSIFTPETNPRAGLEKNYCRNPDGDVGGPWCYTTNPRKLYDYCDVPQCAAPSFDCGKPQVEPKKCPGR
T1 sequence (P00747 581-810 limits assumed): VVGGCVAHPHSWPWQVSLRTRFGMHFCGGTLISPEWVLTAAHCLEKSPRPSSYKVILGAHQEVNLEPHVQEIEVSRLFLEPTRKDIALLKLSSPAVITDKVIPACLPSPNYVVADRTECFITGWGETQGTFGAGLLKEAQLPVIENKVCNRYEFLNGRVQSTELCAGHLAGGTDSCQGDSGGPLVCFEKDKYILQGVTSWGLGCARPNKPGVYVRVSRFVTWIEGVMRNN

concentration adequate to give a stable clot without any significant degradation (plasmin [1]; same manner as FIG. 5 with Ca-TA (FIG. 12)): about 0.1 mE | increase in volume or weight of clot, of its original weight (plasmin [2]; 3 percent Ca-TA, plasmin solution, on Day-1 and Day-2): more than 50% | Average Weight of fibrin clot (plasmin [2]; [3]): 113.0 mg | Fibrin clot weight, set A (plasmin [2]; [3]): 113 mg | Fibrin clot weight, set B (plasmin [2]; [3]): 113 mg | Fibrin clot weight, set C (plasmin [2]; [3]): 113 mg | percent degradation (plasmin [2]; [3]): 0% | Average Weight of fibrin clot (plasmin [2]; [4]): 179.7 mg | Fibrin clot weight, set A (plasmin [2]; [4]): 175 mg | Fibrin clot weight, set B (plasmin [2]; [4]): 160 mg | Fibrin clot weight, set C (plasmin [2]; [4]): 204 mg | Average Weight of fibrin clot (plasmin [2]; [5]): 185.0 mg | Fibrin clot weight, set A (plasmin [2]; [5]): 172 mg | Fibrin clot weight, set B (plasmin [2]; [5]): 174 mg | Fibrin clot weight, set C (plasmin [2]; [5]): 209 mg | Average Weight of fibrin clot (plasmin [2]; [6]): 123.3 mg | Fibrin clot weight, set A (plasmin [2]; [6]): 130 mg | Fibrin clot weight, set B (plasmin [2]; [6]): 100 mg | Fibrin clot weight, set C (plasmin [2]; [6]): 140 mg | Average Weight of fibrin clot (plasmin [2]; [7]): 0.0 mg | Fibrin clot weight, set A (plasmin [2]; [7]): 0 mg | Fibrin clot weight, set B (plasmin [2]; [7]): 0 mg | Fibrin clot weight, set C (plasmin [2]; [7]): 0 mg | percent degradation (plasmin [2]; [7]): 100%
Compound: NCC1CCC(C(=O)[O-])CC1.NCC1CCC(C(=O)[O-])CC1.[Ca+2] (stereo not drawn) [Ca-TA, Calcium Tranexamate]
increase in volume or weight of clot (fibrin clot): more than 50%

Average Weight of fibrin clot (plasmin [1]; [8]): 95.3 mg | Fibrin clot weight, set A (plasmin [1]; [8]): 96 mg | Fibrin clot weight, set B (plasmin [1]; [8]): 99 mg | Fibrin clot weight, set C (plasmin [1]; [8]): 91 mg | Percentage Degradation (plasmin [1]; [8]): 11.8% | Average Weight of fibrin clot (plasmin [1]; [9]): 98.0 mg | Fibrin clot weight, set A (plasmin [1]; [9]): 108 mg | Fibrin clot weight, set B (plasmin [1]; [9]): 104 mg | Fibrin clot weight, set C (plasmin [1]; [9]): 82 mg | Percentage Degradation (plasmin [1]; [9]): 9.3% | Average Weight of fibrin clot (plasmin [1]; [10]): 105.3 mg | Fibrin clot weight, set A (plasmin [1]; [10]): 102 mg | Fibrin clot weight, set B (plasmin [1]; [10]): 106 mg | Fibrin clot weight, set C (plasmin [1]; [10]): 108 mg | Percentage Degradation (plasmin [1]; [10]): 2.5% | Average Weight of fibrin clot (plasmin [1]; [11]): 104.7 mg | Fibrin clot weight, set A (plasmin [1]; [11]): 100 mg | Fibrin clot weight, set B (plasmin [1]; [11]): 108 mg | Fibrin clot weight, set C (plasmin [1]; [11]): 106 mg | Percentage Degradation (plasmin [1]; [11]): 3.0% | concentration sufficient for maximum activity (resistance against fibrin clot degradation by plasmin) (plasmin [1]; TA concentration, plasmin 6.6 μg/ml, 37° C., 48 hours): 0.1 mM | concentration sufficient for maximum activity, stated in ppm (plasmin [1]; plasmin 6.6 μg/ml, 37° C., 48 hours): 157 ppm
Compound: NC[C@H]1CC[C@H](C(=O)O)CC1 [TA, trans-4-aminomethyl-cyclohexane-1-carboxylic acid]

Average Weight of fibrin clot (plasmin [2]; [12]): 109.13 mg | Fibrin clot weight, set A (plasmin [2]; [12]): 109.30 mg | Fibrin clot weight, set B (plasmin [2]; [12]): 108.50 mg | Fibrin clot weight, set C (plasmin [2]; [12]): 109.60 mg | percent degradation (plasmin [2]; [12]): 0.00% | Average Weight of fibrin clot (plasmin [2]; [13]): 100.60 mg | Fibrin clot weight, set A (plasmin [2]; [13]): 100.20 mg | Fibrin clot weight, set B (plasmin [2]; [13]): 98.10 mg | Fibrin clot weight, set C (plasmin [2]; [13]): 103.50 mg | percent degradation (plasmin [2]; [13]): 7.82% | Average Weight of fibrin clot (plasmin [2]; [14]): 15.03 mg | Fibrin clot weight, set A (plasmin [2]; [14]): 14.60 mg | Fibrin clot weight, set B (plasmin [2]; [14]): 13.80 mg | Fibrin clot weight, set C (plasmin [2]; [14]): 16.70 mg | percent degradation (plasmin [2]; [14]): 86.22% | Average Weight of fibrin clot (plasmin [2]; [15]): 0.00 mg | Fibrin clot weight, set A (plasmin [2]; [15]): 0.00 mg | Fibrin clot weight, set B (plasmin [2]; [15]): 0.00 mg | Fibrin clot weight, set C (plasmin [2]; [15]): 0.00 mg | percent degradation (plasmin [2]; [15]): 100.00% | Average Weight of fibrin clot (plasmin [2]; [16]): 0.00 mg | Fibrin clot weight, set A (plasmin [2]; [16]): 0.00 mg | Fibrin clot weight, set B (plasmin [2]; [16]): 0.00 mg | Fibrin clot weight, set C (plasmin [2]; [16]): 0.00 mg | percent degradation (plasmin [2]; [16]): 100.00%
Compound: Aprotinin
